Reference: PMC7926352, “Synthesis, Characterization and In Vitro Evaluation of Novel 5-Ene-thiazolo[3,2-b][1,2,4]triazole-6(5H)-ones as Possible Anticancer Agents” (Molecules, 2021)
Like-named read-outs stand apart in the source and are kept apart here.

What was measured:
[1] = tested on: human embryonic kidney (HEK 293) cell lines; assay: MTT cytotoxicity assay; format: cell-based; conditions: HEK 293, MTT, 24 h
Description: Compounds 2h and 2i were also evaluated in vitro for their cytotoxic potential against human embryonic kidney (HEK 293) cell lines using the MTT assay.
The cytotoxicity of compounds 2h and 2i was analyzed in vitro by the MTT colorimetric assay on human embryonic kidney cell lines (HEK 293). HEK cell lines were cultured in DMEM supplemented with 10% fetal calf serum and 1% antibiotic-antimycotic mixture culture plates at 37 °C and 5% CO2-humidified incubator. Cells were seeded at a density of 1 × 10^5 cells/well in 96-well plate for 24 h; then, cells were washed and incubated in fresh medium. Compounds 2h and 2i were added at a concentration of 1, 5, 10, 25, and 50 μg/mL to triplicate wells and kept for 24 h, after which cells were washed three times with PBS. After washing, 20 μL of MTT solution (5 mg/mL stock solution) were added to each well, and cells were then incubated for an additional 4 h. The unreacted MTT dye and medium were aspirated off, and 100 μL of DMSO was added to each well to ensure solubilization of formazan crystals. The contents of the plates were mixed for 15 min to achieve complete solubilization of the formazan crystals, and the measurement of optical density was carried out at 570 nm with a micro plate spectrophotometer (MRX Microplate Reader, Dynatech Laboratories Inc., Chantilly, VA, USA) at 570 nm.

COLO 205 = format: cell-based; conditions: COLO 205, Colon cancer; for CC50: read-out: LC50 (the source's name)
A549/ATCC = format: cell-based; conditions: NSCLC; for CC50: read-out: LC50 (the source's name)
T-47D = format: cell-based; conditions: Breast Cancer; for CC50: read-out: LC50 (the source's name)
SNB-19 = format: cell-based; conditions: SNB-19, CNS Cancer; for CC50: read-out: LC50 (the source's name)
NCI-H226 = format: cell-based; conditions: NCI-H226, NSCLC
[2] = Homo sapiens, read-out: GI50, panel MG_MID
[3] = Homo sapiens, read-out: GI50, values range inside panel
[4] = Homo sapiens, read-out: LC50, panel MG_MID
[5] = Homo sapiens, read-out: LC50, values range inside panel
[6] = read-out: GI50, values range inside panel, Breast Cancer subpanel

O=C(COc1ccc(Cl)cc1/C=c1\sc2ncnn2c1=O)Nc1ccc(Cl)cc1 [Compound 2h, (Z)-2-(4-Chloro-2-((6-oxothiazolo[3,2-b][1,2,4]triazol-5(6H)-ylidene)methyl)phenoxy)-N-(4-chlorophenyl)acetamide]
GI50 (MALME-3M; Homo sapiens, Malme-3M): 7.94 µM
CC50 (MALME-3M; Homo sapiens, Malme-3M, read-out: LC50): 45.7 µM
TGI (MALME-3M; MALME-3M, Melanoma): 20.89 µM
GI50 (Melanoma cell lines; [2]): 4.79 µM
GI50 (Melanoma cell lines; [3]): 2.63 to 8.31 µM
CC50 (Melanoma cell lines; [4]): 41.2 µM
CC50 (Melanoma cell lines; [5]): 33.1 to 51.3 µM
TGI, panel MG_MID (Melanoma cell lines; Melanoma subpanel): 16.49 µM
TGI, values range inside panel (Melanoma cell lines; Melanoma subpanel): 11.22 to 20.89 µM
IC50 ([1]; Homo sapiens, HEK293): 29 µM
GI50 (OVCAR-4; Homo sapiens, OVCAR-4): 8.91 µM
CC50 (OVCAR-4; Homo sapiens, OVCAR-4, read-out: LC50): 97.7 µM
TGI (OVCAR-4; OVCAR-4, Ovarian Cancer): 30.90 µM
TGI (COLO 205): 19.95 µM
GI50 (COLO 205; Homo sapiens): 7.58 µM
CC50 (COLO 205; Homo sapiens): 44.7 µM
GI50 (MDA-MB-231/ATCC; Homo sapiens, MDA-MB-231): < 0.01 µM
CC50 (MDA-MB-231/ATCC; Homo sapiens, MDA-MB-231, read-out: LC50): 75.9 µM
TGI (MDA-MB-231/ATCC; MDA-MB-231/ATCC, Breast Cancer): 11.48 µM
GI50 (U251; Homo sapiens, U-251): 4.07 µM
CC50 (U251; Homo sapiens, U-251, read-out: LC50): 38 µM
TGI (U251; U251, CNS Cancer): 14.45 µM
GI50 (A549/ATCC; Homo sapiens): 15.5 µM
CC50 (A549/ATCC; Homo sapiens): 60.2 µM
TGI (A549/ATCC): 30.90 µM
GI50 (SK-MEL-5; Homo sapiens, SK-MEL-5): 3.23 µM
CC50 (SK-MEL-5; Homo sapiens, SK-MEL-5, read-out: LC50): 38 µM
TGI (SK-MEL-5; SK-MEL-5, Melanoma): 14.79 µM
GI50 (NCI-H460; Homo sapiens, NCI-H460): 11.5 µM
CC50 (NCI-H460; Homo sapiens, NCI-H460, read-out: LC50): 49 µM
TGI (NCI-H460; NCI-H460, NSCLC): 23.44 µM
GI50 (MDA-MB-435; Homo sapiens, MDA-MB-435): 2.95 µM
CC50 (MDA-MB-435; Homo sapiens, MDA-MB-435, read-out: LC50): 28.8 µM
TGI (MDA-MB-435; MDA-MB-435, Breast Cancer): 12.58 µM
GI50 (SK-MEL-28; Homo sapiens, SK-MEL-28): 6.16 µM
CC50 (SK-MEL-28; Homo sapiens, SK-MEL-28, read-out: LC50): 51.3 µM
TGI (SK-MEL-28; SK-MEL-28, Melanoma): 20.41 µM
TGI (HT29; HT29, Colon cancer): 15.13 µM
GI50 (HT29; Homo sapiens, HT-29): 4.67 µM
CC50 (HT29; Homo sapiens, HT-29, read-out: LC50): 38.9 µM
TGI (T-47D): 25.70 µM
GI50 (T-47D; Homo sapiens, T47D): 7.76 µM
CC50 (T-47D; Homo sapiens, T47D): 28.8 µM
GI50 (SNB-19; Homo sapiens): 3.8 µM
CC50 (SNB-19; Homo sapiens): 38 µM
TGI (SNB-19): 14.45 µM
GI50 (NCI-H226; Homo sapiens): 3.09 µM
LC50 (50% lethal concentration) (NCI-H226; Homo sapiens): 44.7 µM
TGI (NCI-H226): 17.37 µM
TGI, panel MG_MID (Colon cancer cell lines; Colon cancer subpanel): 17.39 µM
TGI, values range inside panel (Colon cancer cell lines; Colon cancer subpanel): 10.96 to 21.37 µM
GI50 (Colon cancer cell lines; [2]): 6.13 µM
GI50 (Colon cancer cell lines; [3]): 2.45 to 9.33 µM
CC50 (Colon cancer cell lines; [4]): 41.4 µM
CC50 (Colon cancer cell lines; [5]): 33.1 to 45.7 µM
GI50 (SK-OV-3; Homo sapiens, SK-OV-3): 15.5 µM
CC50 (SK-OV-3; Homo sapiens, SK-OV-3, read-out: LC50): 53.7 µM
TGI (SK-OV-3; SK-OV-3, Ovarian Cancer): 28.84 µM
GI50 (SK-MEL-2; Homo sapiens, SK-MEL-2): 3.98 µM
CC50 (SK-MEL-2; Homo sapiens, SK-MEL-2, read-out: LC50): 38.9 µM
TGI (SK-MEL-2; SK-MEL-2, Melanoma): 13.80 µM
GI50 (SN12C; Homo sapiens): 1.62 µM
CC50 (SN12C; Homo sapiens, read-out: LC50): 41.7 µM
TGI (SN12C; Renal Cancer): 12.88 µM
GI50 (SNB-75; Homo sapiens, SNB-75): 3.38 µM
CC50 (SNB-75; Homo sapiens, SNB-75, read-out: LC50): 87.1 µM
TGI (SNB-75; SNB-75, CNS Cancer): 15.48 µM
TGI, panel MG_MID (Breast Cancer cell lines; Breast Cancer subpanel): 15.61 µM
TGI, values range inside panel (Breast Cancer cell lines; Breast Cancer subpanel): 4.07 to 41.68 µM
GI50 (Breast Cancer cell lines; [2]): 4.48 µM
CC50 (Breast Cancer cell lines; [4]): 46.1 µM
GI50 (Breast Cancer cell lines; [6]): 0.01 to 15.5 µM
GI50 (EKVX; Homo sapiens): 2.51 µM
CC50 (EKVX; Homo sapiens, read-out: LC50): 31.6 µM
TGI (EKVX; NSCLC): 9.99 µM
GI50 (OVCAR-8; Homo sapiens, OVCAR-8): 3.16 µM
CC50 (OVCAR-8; Homo sapiens, OVCAR-8, read-out: LC50): 41.7 µM
TGI (OVCAR-8; OVCAR-8, Ovarian Cancer): 12.88 µM
GI50 (UACC-257; Homo sapiens, UACC-257): 3.38 µM
CC50 (UACC-257; Homo sapiens, UACC-257, read-out: LC50): 38.9 µM
TGI (UACC-257; UACC-257, Melanoma): 15.13 µM

Ethyl(Z)-4-(3-(4-chloro-2-((6-oxothiazolo[3,2-b][1,2,4]triazol-5(6H)-ylidene)methyl)phenyl)propanamido)benzoate [Compound 2i]
GI50 (MALME-3M; MALME-3M, Melanoma): 14.8 µM
TGI (MALME-3M; MALME-3M, Melanoma): 28.18 µM
TGI, panel MG_MID (Melanoma cell lines; Melanoma subpanel): 25.61 µM
TGI, values range inside panel (Melanoma cell lines; Melanoma subpanel): 18.19 to 33.11 µM
GI50 (Melanoma cell lines; read-out: GI50, panel MG_MID, Melanoma subpanel): 11.8 µM
GI50 (Melanoma cell lines; read-out: GI50, values range inside panel, Melanoma subpanel): 5.62 to 14.8 µM
CC50 (Melanoma cell lines; read-out: LC50, panel MG_MID, Melanoma subpanel): 55.4 µM
IC50 [1]: 24.4 µM
GI50 (OVCAR-4; OVCAR-4, Ovarian Cancer): 12.9 µM
TGI (OVCAR-4; OVCAR-4, Ovarian Cancer): 38.90 µM
GI50 (COLO 205): 14.8 µM
TGI (COLO 205): 31.62 µM
CC50 (COLO 205): 67.6 µM
GI50 (MDA-MB-231/ATCC; MDA-MB-231/ATCC, Breast Cancer): 12.3 µM
TGI (MDA-MB-231/ATCC; MDA-MB-231/ATCC, Breast Cancer): 26.91 µM
GI50 (U251; U251, CNS Cancer): 6.6 µM
TGI (U251; U251, CNS Cancer): 19.05 µM
GI50 (A549/ATCC): 19.5 µM
TGI (A549/ATCC): 39.81 µM
CC50 (A549/ATCC): 79.4 µM
GI50 (SK-MEL-5; SK-MEL-5, Melanoma): 10.5 µM
TGI (SK-MEL-5; SK-MEL-5, Melanoma): 21.87 µM
GI50 (NCI-H460; NCI-H460, NSCLC): 13.5 µM
TGI (NCI-H460; NCI-H460, NSCLC): 27.54 µM
GI50 (MDA-MB-435; MDA-MB-435, Breast Cancer): 10.5 µM
TGI (MDA-MB-435; MDA-MB-435, Breast Cancer): 25.11 µM
GI50 (SK-MEL-28; SK-MEL-28, Melanoma): 12 µM
TGI (SK-MEL-28; SK-MEL-28, Melanoma): 23.98 µM
GI50 (HT29; HT29, Colon cancer): 12 µM
TGI (HT29; HT29, Colon cancer): 24.54 µM
GI50 (T-47D): 11 µM
TGI (T-47D): 38.01 µM
CC50 (T-47D): 41.7 µM
GI50 (SNB-19): 10.2 µM
TGI (SNB-19): 23.44 µM
CC50 (SNB-19): 52.5 µM
GI50 (NCI-H226): 17 µM
LC50 (50% lethal concentration) (NCI-H226): 67.6 µM
TGI (NCI-H226): 33.11 µM
TGI, panel MG_MID (Colon cancer cell lines; Colon cancer subpanel): 26.51 µM
TGI, values range inside panel (Colon cancer cell lines; Colon cancer subpanel): 21.37 to 33.11 µM
GI50 (Colon cancer cell lines; read-out: GI50, panel MG_MID, Colon cancer subpanel): 12.4 µM
GI50 (Colon cancer cell lines; read-out: GI50, values range inside panel, Colon cancer subpanel): 9.55 to 16.6 µM
GI50 (SK-OV-3; SK-OV-3, Ovarian Cancer): 19.9 µM
TGI (SK-OV-3; SK-OV-3, Ovarian Cancer): 35.48 µM
GI50 (SK-MEL-2; SK-MEL-2, Melanoma): 14.5 µM
TGI (SK-MEL-2; SK-MEL-2, Melanoma): 33.11 µM
GI50 (SN12C; Renal Cancer): 12.6 µM
TGI (SN12C; Renal Cancer): 25.11 µM
GI50 (SNB-75; SNB-75, CNS Cancer): 13.2 µM
TGI (SNB-75; SNB-75, CNS Cancer): 44.66 µM
TGI, panel MG_MID (Breast Cancer cell lines; Breast Cancer subpanel): 30.29 µM
GI50 (Breast Cancer cell lines; read-out: GI50, panel MG_MID, Breast Cancer subpanel): 9.72 µM
GI50 (Breast Cancer cell lines; [6]): 3.54 to 21.9 µM
GI50 (EKVX; NSCLC): 12.9 µM
TGI (EKVX; NSCLC): 25.70 µM
GI50 (OVCAR-8; OVCAR-8, Ovarian Cancer): 13.5 µM
TGI (OVCAR-8; OVCAR-8, Ovarian Cancer): 33.88 µM
GI50 (UACC-257; UACC-257, Melanoma): 10.5 µM
TGI (UACC-257; UACC-257, Melanoma): 25.70 µM
